Test results from ChEMBL document CHEMBL1201862, “PubChem BioAssay data set” (2004).
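Five concentrations, 48 hours, 96-well plates. The concentration for 50% growth inhibition is given as GI50.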 Activity calls are given as the source filed them. No stated cut-off is given here; in the data, active = GI50 up to about 1.1 µM and inactive = higher.

Columns and labels:
Assay in all cases: NCI anticancer screen, dose series, 48 h
[1] = system: HOP-92
[2] = system: MDA-N
[3] = system: A549
[4] = system: RPMI-8226
[5] = system: SNB-19
[6] = system: UACC-62
[7] = system: ACHN
[8] = system: SF-268
[9] = system: NCI-H226
[10] = system: SW-620
[11] = system: HL-60
[12] = system: BT-549
[13] = system: SN12C
[14] = system: NCI/ADR-RES
[15] = system: NCI-H460
[16] = system: NCI-H522
[17] = system: CCRF-CEM
[18] = system: UO-31
[19] = system: UACC-257
[20] = system: MOLT-4

SMILES | GI50 [1] | GI50 [2] | GI50 [3] | GI50 [4] | GI50 [5] | GI50 [6] | GI50 [7] | GI50 [8] | GI50 [9] | GI50 [10] | GI50 [11] | GI50 [12] | GI50 [13] | GI50 [14] | GI50 [15] | GI50 [16] | GI50 [17] | GI50 [18] | GI50 [19] | GI50 [20]
COc1ccc(-c2cc3c(nn2)-c2ccccc2C3=O)cc1 | > 10 µM (inactive) | > 10 µM (inactive) | > 10 µM (inactive) | > 10 µM (inactive) | > 10 µM (inactive) | > 10 µM (inactive) | > 10 µM (inactive) | > 10 µM (inactive) | > 10 µM (inactive) | > 10 µM (inactive) | > 10 µM (inactive) | > 10 µM (inactive) | > 10 µM (inactive) | > 10 µM (inactive) | > 10 µM (inactive) | > 10 µM (inactive) | 6.38 µM (inactive) | > 10 µM (inactive) | > 10 µM (inactive) | –
Cc1[nH]c2ccccc2c1-c1cc(-c2cc(-c3c(C)[nH]c4ccccc34)on2)no1 | 83.8 µM (inactive) | 21 µM (inactive) | > 100 µM (inactive) | 85.1 µM (inactive) | > 100 µM (inactive) | 51.4 µM (inactive) | > 100 µM (inactive) | 52.7 µM (inactive) | 98.4 µM (inactive) | 53.2 µM (inactive) | 34.5 µM (inactive) | > 100 µM (inactive) | > 100 µM (inactive) | > 100 µM (inactive) | 42 µM (inactive) | 34.3 µM (inactive) | 34.2 µM (inactive) | 46.6 µM (inactive) | 43.1 µM (inactive) | > 100 µM (inactive)
N#Cc1c(Nc2ccccc2)[n+]([O-])c2ccc(Cl)cc2[n+]1[O-] | 1.73 µM (inactive) | 11 µM (inactive) | 9.86 µM (inactive) | 3.28 µM (inactive) | 5.51 µM (inactive) | 3.71 µM (inactive) | 2.85 µM (inactive) | 4.38 µM (inactive) | 4.67 µM (inactive) | 4.63 µM (inactive) | 2.01 µM (inactive) | 3.44 µM (inactive) | 4.49 µM (inactive) | 2.7 µM (inactive) | 2.42 µM (inactive) | 2.16 µM (inactive) | 2.92 µM (inactive) | 2.89 µM (inactive) | 7.28 µM (inactive) | 3.65 µM (inactive)
Nc1nc(Cl)cc(NCC2(O)CC(CO)C2)n1 (stereo unspecified) | > 100 µM (inactive) | > 100 µM (inactive) | > 100 µM (inactive) | > 100 µM (inactive) | > 100 µM (inactive) | > 100 µM (inactive) | > 100 µM (inactive) | > 100 µM (inactive) | > 100 µM (inactive) | > 100 µM (inactive) | > 100 µM (inactive) | > 100 µM (inactive) | > 100 µM (inactive) | > 100 µM (inactive) | > 100 µM (inactive) | > 100 µM (inactive) | > 100 µM (inactive) | > 100 µM (inactive) | > 100 µM (inactive) | > 100 µM (inactive)
CN(C)/C=N\c1cccc2cnccc12 | > 100 µM (inactive) | > 100 µM (inactive) | > 100 µM (inactive) | > 100 µM (inactive) | > 100 µM (inactive) | > 100 µM (inactive) | > 100 µM (inactive) | > 100 µM (inactive) | > 100 µM (inactive) | – | > 100 µM (inactive) | > 100 µM (inactive) | > 100 µM (inactive) | > 100 µM (inactive) | – | > 100 µM (inactive) | > 100 µM (inactive) | > 100 µM (inactive) | > 100 µM (inactive) | > 100 µM (inactive)
C[C@]12CC[C@@H]3c4ccc(OC(=O)c5ccccc5)cc4CC[C@H]3[C@@H]1CC[C@@H]2Oc1c2ccccc2nc2ccccc12 | 12.9 µM (inactive) | 3.53 µM (inactive) | 6.62 µM (inactive) | 7.69 µM (inactive) | 7.45 µM (inactive) | 17.7 µM (inactive) | 37 µM (inactive) | 3.93 µM (inactive) | 14.9 µM (inactive) | 16.9 µM (inactive) | 2.95 µM (inactive) | 9.98 µM (inactive) | – | 11.4 µM (inactive) | 8.53 µM (inactive) | 8.15 µM (inactive) | 0.0161 µM (active) | 13.2 µM (inactive) | 13.6 µM (inactive) | 8.87 µM (inactive)
COCCN(C(C)=O)C1CCC2(SCCS2)c2[nH]c3ccccc3c21 (stereo unspecified) | 70.3 µM (inactive) | > 100 µM (inactive) | > 100 µM (inactive) | 35.5 µM (inactive) | > 100 µM (inactive) | – | > 100 µM (inactive) | > 100 µM (inactive) | > 100 µM (inactive) | > 100 µM (inactive) | > 100 µM (inactive) | > 100 µM (inactive) | > 100 µM (inactive) | > 100 µM (inactive) | 77.6 µM (inactive) | > 100 µM (inactive) | > 100 µM (inactive) | – | > 100 µM (inactive) | 56.9 µM (inactive)
Cc1ccc(NC(=O)c2cc(S(=O)(=O)N3CCNNC3=O)c(S)cc2Cl)cc1 | 41.3 µM (inactive) | > 100 µM (inactive) | > 100 µM (inactive) | 28.2 µM (inactive) | > 100 µM (inactive) | > 100 µM (inactive) | > 100 µM (inactive) | > 100 µM (inactive) | > 100 µM (inactive) | > 100 µM (inactive) | > 100 µM (inactive) | 28.9 µM (inactive) | > 100 µM (inactive) | > 100 µM (inactive) | > 100 µM (inactive) | 26.5 µM (inactive) | > 100 µM (inactive) | > 100 µM (inactive) | > 100 µM (inactive) | > 100 µM (inactive)
COC(=O)/C=C(/C(=O)OC)c1cc2ccc3c([nH]c4ccccc43)c(C)c-2c1 | 1.21 µM (inactive) | 2.9 µM (inactive) | 4.73 µM (inactive) | 3.72 µM (inactive) | 9.29 µM (inactive) | 4.66 µM (inactive) | 6.61 µM (inactive) | 4.26 µM (inactive) | 5.98 µM (inactive) | 4.93 µM (inactive) | 3.15 µM (inactive) | 4.78 µM (inactive) | 10.1 µM (inactive) | 3.46 µM (inactive) | 4.45 µM (inactive) | 2.54 µM (inactive) | 2.9 µM (inactive) | 3.79 µM (inactive) | 6.95 µM (inactive) | 3.13 µM (inactive)
COc1cc2oc(=O)cc(C)c2cc1[N+](=O)[O-] | 17.1 µM (inactive) | 14.7 µM (inactive) | > 90.4 µM (inactive) | 27 µM (inactive) | > 83.6 µM (inactive) | 16.1 µM (inactive) | 28.1 µM (inactive) | 17.5 µM (inactive) | 8.77 µM (inactive) | 23 µM (inactive) | 8.87 µM (inactive) | 16.7 µM (inactive) | 16.4 µM (inactive) | 28.4 µM (inactive) | 46.3 µM (inactive) | 11.6 µM (inactive) | 17.8 µM (inactive) | 34.4 µM (inactive) | 16.3 µM (inactive) | 13.7 µM (inactive)
COc1ccccc1-c1c(C#N)c(N)[nH]c(=S)c1C#N | 62.5 µM (inactive) | 25.9 µM (inactive) | 83 µM (inactive) | 20.5 µM (inactive) | > 100 µM (inactive) | 55.1 µM (inactive) | > 100 µM (inactive) | 47.6 µM (inactive) | 31.6 µM (inactive) | 27.4 µM (inactive) | 34.7 µM (inactive) | 47.9 µM (inactive) | 25.4 µM (inactive) | > 100 µM (inactive) | 67 µM (inactive) | 23.2 µM (inactive) | – | 93.1 µM (inactive) | > 100 µM (inactive) | 11.5 µM (inactive)
O=C1C=C(O)C(=O)c2c(O)ccc(O)c21 | > 100 µM (inactive) | > 100 µM (inactive) | > 100 µM (inactive) | > 100 µM (inactive) | > 100 µM (inactive) | > 100 µM (inactive) | > 100 µM (inactive) | > 100 µM (inactive) | > 100 µM (inactive) | > 100 µM (inactive) | 58.5 µM (inactive) | > 100 µM (inactive) | – | > 100 µM (inactive) | > 100 µM (inactive) | > 100 µM (inactive) | > 100 µM (inactive) | > 100 µM (inactive) | > 100 µM (inactive) | > 100 µM (inactive)
COC1=C2CC(C)CC(OC)C(OC(=O)CCCN)C(C)/C=C(\C)C(OC(N)=O)C(OC)/C=C\C=C(/C)C(=O)NC(=CC1=O)C2=O (stereo unspecified) | 4.23 µM (inactive) | 4.33 µM (inactive) | 25.5 µM (inactive) | 2.29 µM (inactive) | 15.4 µM (inactive) | 6 µM (inactive) | 5.4 µM (inactive) | 10.3 µM (inactive) | 16.3 µM (inactive) | 0.873 µM (active) | 0.289 µM (active) | 4.29 µM (inactive) | 5.5 µM (inactive) | 19.9 µM (inactive) | 15.5 µM (inactive) | 0.431 µM (active) | 0.766 µM (active) | 10.5 µM (inactive) | 5.64 µM (inactive) | 0.815 µM (active)
COc1ccc(-c2oc3ccc(C)cc3c(=O)c2O)cc1 | > 100 µM (inactive) | > 100 µM (inactive) | > 100 µM (inactive) | 9.95 µM (inactive) | 44.4 µM (inactive) | > 100 µM (inactive) | 31.9 µM (inactive) | 45 µM (inactive) | > 100 µM (inactive) | > 100 µM (inactive) | 58.7 µM (inactive) | > 100 µM (inactive) | > 100 µM (inactive) | 35.4 µM (inactive) | – | > 100 µM (inactive) | > 100 µM (inactive) | > 100 µM (inactive) | > 100 µM (inactive) | 58.6 µM (inactive)
